Where “and” joins values, the source holds several entries; their conditions need not be identical. Identical values can stand only once. Inconclusive results and toxic doses are left out. Cut-off read from the data, not from the text of the source: active = T/C of 150% or more; inactive = T/C below 125%.
System: L1210 leukemia ip in BDF1 mice, survival T/C
Assay: NCI In Vivo Anticancer Drug Screen. Data for tumor model L1210 Leukemia (intraperitoneal) in B6D2F1 (BDF1) mice
Conditions: higher = longer survival
In short: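 Value reflects the ratio of survival in compound-treated mice to survival in vehicle-treated controls, with both groups carrying the same transplanted tumor.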

[1] = endpoint: mean survival time, dose: 100.0 mg/kg/injection, schedule: Q04DX002 (ip), vehicle: Klucel (hydroxypropylcellulose) (HPC)
[2] = endpoint: mean survival time, dose: 200.0 mg/kg/injection, schedule: Q04DX002 (ip), vehicle: Klucel (hydroxypropylcellulose) (HPC)
[3] = endpoint: mean survival time, dose: 400.0 mg/kg/injection, schedule: Q04DX002 (ip), vehicle: Klucel (hydroxypropylcellulose) (HPC)
[4] = endpoint: mean survival time, dose: 100.0 mg/kg/injection, schedule: Q01DX009 (ip), vehicle: Klucel (hydroxypropylcellulose) (HPC)
[5] = endpoint: mean survival time, dose: 100.0 mg/kg/injection, schedule: Q01DX009 (ip), vehicle: saline
[6] = endpoint: mean survival time, dose: 200.0 mg/kg/injection, schedule: Q01DX009 (ip), vehicle: Klucel (hydroxypropylcellulose) (HPC)
[7] = endpoint: mean survival time, dose: 200.0 mg/kg/injection, schedule: Q01DX009 (ip), vehicle: saline
[8] = endpoint: mean survival time, dose: 400.0 mg/kg/injection, schedule: Q01DX009 (ip), vehicle: Klucel (hydroxypropylcellulose) (HPC)
[9] = endpoint: mean survival time, dose: 400.0 mg/kg/injection, schedule: Q01DX009 (ip), vehicle: saline
[10] = endpoint: mean survival time, dose: 100.0 mg/kg/injection, schedule: Q04DX003 (ip), vehicle: saline
[11] = endpoint: mean survival time, dose: 200.0 mg/kg/injection, schedule: Q04DX003 (ip), vehicle: saline
[12] = endpoint: mean survival time, dose: 400.0 mg/kg/injection, schedule: Q04DX003 (ip), vehicle: saline
[13] = endpoint: mean survival time, dose: 100.0 mg/kg/injection, schedule: Q04DX003 (ip), vehicle: saline with Tween-80
[14] = endpoint: mean survival time, dose: 200.0 mg/kg/injection, schedule: Q04DX003 (ip), vehicle: saline with Tween-80
[15] = endpoint: mean survival time, dose: 400.0 mg/kg/injection, schedule: Q04DX003 (ip), vehicle: saline with Tween-80
[16] = endpoint: mean survival time, dose: 100.0 mg/kg/injection, schedule: Q01DX001 (ip), vehicle: saline
[17] = endpoint: mean survival time, dose: 200.0 mg/kg/injection, schedule: Q01DX001 (ip), vehicle: saline
[18] = endpoint: mean survival time, dose: 400.0 mg/kg/injection, schedule: Q01DX001 (ip), vehicle: saline

Measured: T/C

CCN(CC)c1nc(SCc2ccccc2Cl)ncc1C
inactive: endpoint: mean survival time, dose: 100.0 mg/kg/injection, schedule: Q01DX Z (ip), vehicle: methylcellulose (MC) 93 % of control | endpoint: mean survival time, dose: 200.0 mg/kg/injection, schedule: Q01DX Z (ip), vehicle: methylcellulose (MC) 98 % of control

CC(C)(C)c1ccc(S(=O)(=O)Cl)cc1
inactive: [1] 97 % of control | [2] 104 % of control | [3] 90 % of control

C[S+](C)(=O)CCCS(=O)(=O)[O-]
inactive: endpoint: mean survival time, dose: 100.0 mg/kg/injection, schedule: Q04DX002 (ip), vehicle: saline 99 % of control | endpoint: mean survival time, dose: 200.0 mg/kg/injection, schedule: Q04DX002 (ip), vehicle: saline 92 % of control | endpoint: mean survival time, dose: 400.0 mg/kg/injection, schedule: Q04DX002 (ip), vehicle: saline 92 % of control

CC(=O)Oc1cc(-c2ccccc2)c(OC(C)=O)cc1-c1ccccc1
inactive: endpoint: mean survival time, dose: 25.0 mg/kg/injection, schedule: Q01DX009 (ip), vehicle: water 96 % of control | endpoint: mean survival time, dose: 50.0 mg/kg/injection, schedule: Q01DX009 (ip), vehicle: water 101 % of control | endpoint: mean survival time, dose: 100.0 mg/kg/injection, schedule: Q01DX009 (ip), vehicle: water 94 % of control | endpoint: mean survival time, dose: 200.0 mg/kg/injection, schedule: Q01DX009 (ip), vehicle: water 101 % of control | endpoint: mean survival time, dose: 400.0 mg/kg/injection, schedule: Q01DX009 (ip), vehicle: water 100 % of control

CC(=O)c1c(OC(=O)c2ccccc2)cc(OC(=O)c2ccccc2)cc1OC(=O)c1ccccc1
inactive: [4] 101 % of control | [5] 97 % of control | [6] 93 % of control | [7] 106 % of control | [8] 95 % of control | [9] 100 % of control

Cn1nnnc1N
inactive: [4] 96 % of control | [5] 98 % of control | [10] 103 % of control | [6] 100 % of control | [7] 96 % of control | [11] 105 % of control | [8] 95 % of control | [9] 89 % of control | [12] 100 % of control

CSCCC(NC(=O)NS(=O)(=O)c1ccc(C)cc1)C(=O)O (stereo not drawn)
inactive: [13] 96 % of control | [14] 97 % of control | [15] 100 % of control

C#CC(O)(c1ccccc1)c1ccc(N(C)C)cc1 (stereo not drawn)
inactive: [13] 98 % of control | [14] 100 % of control | [15] 89 % of control

Oc1ccccc1/C=N\Nc1ccccc1
inactive: [10] 100 % of control | [11] 95 % of control | [12] 103 % of control

Cc1cc(-c2ccc(NS(=O)(=O)c3ccccc3)c(C)c2)ccc1NS(=O)(=O)c1ccccc1
inactive: endpoint: mean survival time, dose: 25.0 mg/kg/injection, schedule: Q01DX001 (ip), vehicle: saline with Tween-80 95 % of control | endpoint: mean survival time, dose: 50.0 mg/kg/injection, schedule: Q01DX001 (ip), vehicle: saline with Tween-80 98 % of control | endpoint: mean survival time, dose: 100.0 mg/kg/injection, schedule: Q01DX001 (ip), vehicle: saline with Tween-80 92 % of control and 104 % of control | endpoint: mean survival time, dose: 200.0 mg/kg/injection, schedule: Q01DX001 (ip), vehicle: saline with Tween-80 89 % of control

Clc1ccc(CNc2ccc(Cl)c(Cl)c2)cc1
inactive: endpoint: mean survival time, dose: 200.0 mg/kg/injection, schedule: Q04DX002 (ip), vehicle: saline with Tween-80 92 % of control | endpoint: mean survival time, dose: 400.0 mg/kg/injection, schedule: Q04DX002 (ip), vehicle: saline with Tween-80 89 % of control

ClCCCN1CCN(CCCCl)CC1
inactive: endpoint: mean survival time, dose: 6.25 mg/kg/injection, schedule: Q01DX009 (ip), vehicle: distilled water + alcohol 93 % of control | endpoint: mean survival time, dose: 12.5 mg/kg/injection, schedule: Q01DX009 (ip), vehicle: distilled water + alcohol 95 % of control | endpoint: mean survival time, dose: 25.0 mg/kg/injection, schedule: Q01DX009 (ip), vehicle: distilled water + alcohol 101 % of control | endpoint: mean survival time, dose: 50.0 mg/kg/injection, schedule: Q01DX009 (ip), vehicle: distilled water + alcohol 113 % of control | endpoint: mean survival time, dose: 100.0 mg/kg/injection, schedule: Q01DX009 (ip), vehicle: distilled water + alcohol 114 % of control

NC(=O)Cn1cnc2c(Cl)ncnc21
inactive: [13] 104 % of control | [14] 102 % of control | [15] 120 % of control

O=[N+]([O-])c1ccc(/C=N/C(/N=C/c2ccc([N+](=O)[O-])cc2)c2ccc([N+](=O)[O-])cc2)cc1
inactive: endpoint: mean survival time, dose: 75.0 mg/kg/injection, schedule: Q01DX009 (ip), vehicle: carboxymethylcellulose (CMC) 94 % of control | endpoint: mean survival time, dose: 100.0 mg/kg/injection, schedule: Q04DX003 (ip), vehicle: carboxymethylcellulose (CMC) 97 % of control | endpoint: mean survival time, dose: 150.0 mg/kg/injection, schedule: Q01DX009 (ip), vehicle: carboxymethylcellulose (CMC) 90 % of control | endpoint: mean survival time, dose: 200.0 mg/kg/injection, schedule: Q04DX003 (ip), vehicle: carboxymethylcellulose (CMC) 95 % of control | endpoint: mean survival time, dose: 300.0 mg/kg/injection, schedule: Q01DX009 (ip), vehicle: carboxymethylcellulose (CMC) 92 % of control | endpoint: mean survival time, dose: 400.0 mg/kg/injection, schedule: Q04DX003 (ip), vehicle: carboxymethylcellulose (CMC) 92 % of control

O=C(O)C1CC2CCC1CC2 (stereo not drawn)
inactive: [16] 104 % of control | [4] 100 % of control | [13] 92 % of control | [17] 93 % of control | [6] 92 % of control | [14] 95 % of control | [18] 100 % of control | [8] 92 % of control | [15] 101 % of control

Cc1nc(N)[nH]c(=O)c1CCCS
inactive: [16] 104 % of control | [17] 101 % of control | [18] 102 % of control

CCC1(c2ccccc2)C(=O)NC(=O)NC1=O
inactive: endpoint: mean survival time, dose: 75.0 mg/kg/injection, schedule: Q01DX001 (ip), vehicle: saline 105 % of control | endpoint: mean survival time, dose: 150.0 mg/kg/injection, schedule: Q01DX001 (ip), vehicle: saline 100 % of control | endpoint: median survival time, dose: 25.0 mg/kg/injection, schedule: Q12HX034 (sc), vehicle: saline 106 % of control | endpoint: median survival time, dose: 50.0 mg/kg/injection, schedule: Q12HX034 (sc), vehicle: saline 100 % of control

CC(C)OC(=O)Nc1cccc(C(F)(F)F)c1
inactive: [1] 103 % of control | [2] 88 % of control | [3] 106 % of control

ON=C(c1ccccc1)c1ccccc1
inactive: endpoint: mean survival time, dose: 100.0 mg/kg/injection, schedule: Q01DX009 (ip), vehicle: saline with Tween-80 101 % of control | endpoint: mean survival time, dose: 200.0 mg/kg/injection, schedule: Q01DX009 (ip), vehicle: saline with Tween-80 105 % of control

COC(=O)C(C(=O)OC)=C(C(=O)OC)C(=O)OC
inactive: [13] 89 % of control | [14] 94 % of control | [15] 93 % of control

CCC1=C[C@H]2CN(CCc3c([nH]c4ccccc34)[C@@](C(=O)OC)(c3cc4c(cc3OC)N(C)[C@H]3[C@@](O)(C(=O)OC)[C@H](OC(C)=O)[C@]5(CC)C=CCN6CC[C@]43[C@@H]65)C2)C1
inactive: endpoint: mean survival time, dose: 0.25 mg/kg/injection, schedule: Q01DX009 (ip), vehicle: water 109 % of control | endpoint: mean survival time, dose: 0.5 mg/kg/injection, schedule: Q01DX009 (ip), vehicle: water 101 % of control | endpoint: mean survival time, dose: 1.0 mg/kg/injection, schedule: Q01DX009 (ip), vehicle: water 111 % of control | endpoint: mean survival time, dose: 2.0 mg/kg/injection, schedule: Q01DX009 (ip), vehicle: water 103 % of control | endpoint: mean survival time, dose: 4.0 mg/kg/injection, schedule: Q01DX009 (ip), vehicle: water 114 % of control | endpoint: mean survival time, dose: 8.0 mg/kg/injection, schedule: Q01DX009 (ip), vehicle: water 112 % of control

O=S(=O)(NC1CCCCC1)c1ccccc1
inactive: endpoint: mean survival time, dose: 75.0 mg/kg/injection, schedule: Q01DX009 (ip), vehicle: saline with Tween-80 94 % of control | endpoint: mean survival time, dose: 150.0 mg/kg/injection, schedule: Q01DX009 (ip), vehicle: saline with Tween-80 95 % of control | endpoint: mean survival time, dose: 300.0 mg/kg/injection, schedule: Q01DX009 (ip), vehicle: saline with Tween-80 97 % of control

N#CC(C#N)=CN
inactive: endpoint: mean survival time, dose: 100.0 mg/kg/injection, schedule: Q01DX001 (ip), vehicle: Klucel (hydroxypropylcellulose) (HPC) 105 % of control | endpoint: mean survival time, dose: 200.0 mg/kg/injection, schedule: Q01DX001 (ip), vehicle: Klucel (hydroxypropylcellulose) (HPC) 106 % of control | endpoint: mean survival time, dose: 400.0 mg/kg/injection, schedule: Q01DX001 (ip), vehicle: Klucel (hydroxypropylcellulose) (HPC) 101 % of control
